Assays:
[1] = tested on: human melanoma cells lacking INK4a/ARF (WM2664); assay: Cell cycle analysis (BrdU and propidium iodide, flow cytometry); format: cell-based; conditions: WM2664 (CDK4/6-dependent), 24 hours treatment
Protocol: (§1) Cells were cultured in DMEM+10% FBS.
(§2) Cell cycle analysis: Cell cycle analysis was performed using BrdU and propidium iodide (both from BD Biosciences Pharmigen, San Jose, Calif., United States of America) following the manufacturer's protocol. Cells were treated for 24 hours with a test compound at a desired dose prior to 15 minutes BrdU pulse, cell harvesting, fixation, staining, and analysis by flow cytometry.
(§3) Histograms of dose-response curves of PD332991 and 2BrIC in HS68, WM2664 and A2058 cells were analyzed using Mod-Fit™ software from Verity Software House (Topsham, Me., United States of America).

[2] = tested on: telomerized human diploid fibroblast (tHDF) cells (HS68); assay: as above; format: cell-based; conditions: HS68 (CDK4/6-dependent), 24 hours treatment
Protocol: as §1, §2, §3

[3] = tested on: human RB-null melanoma cells (A2058); assay: γH2AX assay (DNA damage, flow cytometry); format: cell-based; conditions: 16 hours pretreatment, then 8 hours Carbo, Etop or Dox
Source text: (§4) Reduction in DNA damage effected by the test compound or maintenance of cell viability effected by the test compound in cells treated with cytotoxic compounds can be assessed in any suitable manner. For example, DNA damage in cell populations can be assessed by performing a gamma-H2AX assay as described further herein below. Mammalian cells respond to agents that introduce DNA double-stranded breaks with the immediate and substantial phosphorylation of histone H2AX. Thus, detection of the phosphorylated H2AX, termed gamma-H2AX (γH2AX), using commercially available antibodies, can serve as a measure of DNA damage in cells.
as §1
(§5) γH2AX assay: For γH2AX assay, cells were treated with a dose response of PD332991 or 2BrIC for 24 hours. Cells were fixed, permeabilized, and stained with anti-γH2AX antibody as per γH2AX Flow Kit (Millipore, Billerica, Mass., United States of America). γH2AX levels were assessed by flow cytometry.

[4] = tested on: human melanoma cells lacking INK4a/ARF (WM2664); assay: γH2AX assay (DNA damage, flow cytometry); format: cell-based; conditions: 16 hours pretreatment
Source text: as §4, §1, §5

[5] = tested on: telomerized human diploid fibroblast (tHDF) cells (HS68); assay: γH2AX assay (DNA damage, flow cytometry); format: cell-based; conditions: 16 hours pretreatment, then 8 hours Carbo, Etop or Dox
Source text: as §4, §1, §5

[6] = tested on: hematopoietic stem and progenitor cells (HSPC); assay: In vivo pharmacodynamic assay (BrdU incorporation, Ki67) in bone marrow; design: species or system mice
Protocol: PD0332991: For HSPC proliferation experiments, mice received daily oral gavage with PD0332991 150 mg/kg for 2 days with 1 mg BrdU intraperitoneal injection (i.p.) every 6 hours for 24 hours prior to sacrifice.
2BrIC: For HSPC proliferation experiments, mice were treated with two doses of 2-bromo-12,13-dihydro-5H-indolo[2,3-a]pyrrolo[3,4-c]carbazole-5,7(6H)-dione (2BrIC) 300 mg/kg oral gavage or vehicle control. 2BrIC was solubilized for oral gavage using formulation #6 from the Hot Rod formulation kit (Pharmatek, Inc., San Diego, Calif., United States of America). 2BrIC was administered 2 hours prior to BrdU administration and readministered at the time of the BrdU 1 mg i.p. injection. After BrdU+/−2BrIC treatment for the indicated times, the mice were sacrificed and bone marrow harvested for immunophenotyping, and BrdU analysis.
Bone marrow (BM) was harvested from femurs of mice, pooled, and centrifuged to purify bone marrow mononuclear cells (BM-MNCs). Cells were then incubated for 5 minutes in ACK buffer to lyse red blood cells. All antibodies were from BD Pharmingen (San Jose, Calif., United States of America) unless otherwise indicated. Purified BM-MNCs were incubated with mouse lineage mixture biotin conjugated antibody, followed by streptavidin-FITC. Cells were then stained with Sca-1-PE-Cy7 and c-kit-APC-alexa750 antibodies. Cell viability was assessed using LIVE/DEAD Aqua Dead Cell Stain Kit (Invitrogen Corporation, Carlsbad, Calif., United States of America). For BrdU incorporation assay, the cells were fixed, permeablized, and stained with an APC BrdU Flow Kit according to the manufacturer's instruction. In all experiments, PE-Cy7, FITC, APC-alexa750, and the Aqua Dead cell stain isotype controls were included as appropriate. Flow cytometric analysis was performed using a CyAn ADP (Dako, Glostrup, Denmark). For each sample, a minimum of 500,000 cells was analyzed and the data were analyzed using FlowJo software (Tree Star, Ashland, Oreg., United States of America).

[7] = tested on: mice exposed to chemotherapeutic agents; assay: Myelosuppression assay: weekly complete blood counts; format: in vivo; conditions: for protection of blood cell counts (platelets, hemoglobin, lymphocytes, granulocytes) from doxorubicin: 150 mg/kg oral gavage 1 hour before DOX 10 mg/kg i.p., repeated after 7 days, blood at fourteen days; for protection of blood cell counts (platelets, hemoglobin, lymphocytes, granulocytes) from carboplatin: 150 mg/kg oral gavage one hour before Carbo 100 mg/kg i.p., blood at seven day intervals
Protocol: PD0332991: In the carboplatin experiments, mice were treated with a single dose of PD0332991 150 mg/kg oral gavage or vehicle control followed by carboplatin 100 mg/kg IP injection. In the doxorubicin experiments, mice were treated with a PD0332991 150 mg/kg by oral gavage or vehicle control one hour before doxorubicin 10 mg/kg by IP injection on day 0 and then repeated on day 7.
2BrIC: Mice were treated with a single dose of carboplatin 100 mg/kg by IP injection and two doses of 2BrIC 150mg/kg oral gavage or vehicle control. Mice were pretreated with 2BrIC two hours prior to carboplatin administration and then readministered a second dose of 2BrIC at the time of the carboplatin injection.
Baseline complete blood count (CBC) analysis were performed on a subset of mice prior to drug administration. Following drug administration (chemotherapy+/−indicated CDK4/6 inhibitor or control), mice were monitored weekly for the presence of myelosuppression by CBC analysis. CBC analysis was performed using BD Microtainer tubes with K2E (K2EDTA), 40 μL of blood was collected by tail vein nick. Blood was analyzed using a HESKA CBC-Diff Veterinary Hematology System. CBC analysis included measurement of white blood cells, lymphocytes, granulocytes, monocytes, hematocrit, red blood cells, hemoglobin, platelets, and other common hematological parameters.

[8] = tested on: tumor bearing mice; conditions: serially treated; cited from earlier work
[9] = tested on: human patients with malignancies; conditions: serially treated; cited from earlier work
[10] = tested on: human melanoma cells lacking INK4a/ARF (WM2664); assay: Cell proliferation assay (WST-1 or CellTiter-Glo) after chemotherapeutic; conditions: WM2664 (CDK4/6-dependent); pretreatment prior to carboplatin, etoposide or doxorubicin
Protocol: (§6) In some embodiments, cell viability is assessed by performing a assay using 2-(4-iodophenyl)-3-(4-nitrophenyl)-5-(2,4-disulfophenyl)-2H-tetrazolium monosodium salt (WST-1), such as described further hereinbelow. In the WST-1 assay, WST-1 is cleaved by a mitochondrial reductase present in viable cells to form a colored product (i.e., formazan) that can be detected by measuring absorbance at a particular wavelength (e.g., 420-480 nm). […] The CellTiter-Glo® assay (CTG assay; Promega, Madison, Wis., United States of America) measures cell viability by measuring ATP concentration in cell lysate.
(§7) Cell lines: Telomerized human diploid fibroblast (tHDF) cells (HS68) were cultured in Dulbecco's Modified Eagle Medium (DMEM) +10% fetal bovine serum (FBS) with any additional compounds. The same conditions were used for A2058 and WM2664, human melanoma cell lines with known RB-pathway mutations: A2058 is RB-null, whereas WM2664 lacks INK4a/ARF. Thus, A2058 cells are CDK4/6-independent, while WM2664 cells are CDK4/6-dependent. Cells were cultured in DMEM+10% FBS.
(§8) Cell proliferation assays: Cell proliferation assays were performed by seeding 1×10^3 cells per well in a 96-well tissue culture plate in 100 μL of growth medium. Cells were treated as indicated with compound from Table 1 and doxorubicin, etoposide or carboplatin. Following treatment, cells were allowed to recover for 7 days in normal growth medium. At the end of the recovery period, cell number was quantified using the VVST-1 cell proliferation assay (TaKaRa Bio USA, Madison, Wis., United States of America) or the CellTiter-Glo® assay (CTG; Promega, Madison, Wis., United States of America). Data is presented as absorbance at 450 nm for the WST assays or Relative Light Units (RLU) for the CTG assays.

[11] = tested on: telomerized human diploid fibroblast (tHDF) cells (HS68); assay: as above; conditions: HS68 (CDK4/6-dependent); pretreatment prior to carboplatin, etoposide or doxorubicin
Protocol: as §6, §7, §8

[12] = tested on: human RB-null melanoma cells (A2058); assay: as above; conditions: A2058 (CDK4/6-independent); pretreatment prior to carboplatin, etoposide or doxorubicin
Protocol: as §6, §7, §8

CC(=O)c1c(C)c2cnc(Nc3ccc(N4CCNCC4)cn3)nc2n(C2CCCC2)c1=O [PD0332991, 6-acetyl-8-cyclopentyl-5-methyl-2-(5-piperazin-1-yl-pyridin-2-ylamino)-8H-pyrido-[2,3-d]-pyrimidin-7-one]
cell cycle effect [1]: strong, clean and reversible G1-arrest | cell cycle effect [2]: strong, clean and reversible G1-arrest | protection from doxorubicin-, carboplatin- or etoposide-induced DNA damage (gamma-H2AX) [3]: inability | protection from doxorubicin-, carboplatin- or etoposide-induced DNA damage (gamma-H2AX) ([4]; then 8 hours Carbo, Etop or Dox): attenuated γH2AX staining | protection from carboplatin-induced DNA damage (gamma-H2AX positive cells) ([4]; then 8 hours carboplatin): ability | protection from doxorubicin-induced DNA damage (gamma-H2AX positive cells) ([4]; then 8 hours doxorubicin): ability | protection from etoposide-induced DNA damage (gamma-H2AX positive cells) ([4]; then 8 hours etoposide): ability | protection from doxorubicin-, carboplatin- or etoposide-induced DNA damage (gamma-H2AX) [5]: attenuated γH2AX staining | protection from doxorubicin-, carboplatin- or etoposide-induced DNA damage (gamma-H2AX) ([5]; listed as PD 0332991): ability | proliferation of granulocyte-monocyte progenitors (GMP) and megakaryocyte-erythroid progenitors (MEP) ([6]; 150 mg/kg daily oral gavage, 48 hours): weaker effects | proliferation in early HSPC populations (BrdU incorporation and Ki67 expression) ([6]; 48 hours treatment, 24 hour exposure to BrdU): clearly reduces proliferation | frequency of HSC doubly positive for expression of Ki67 and BrdU ([6]; HSC (Lin−Kit+Sca1+CD48−CD150+), 150 mg/kg daily oral gavage, 48 hours, C57BII/6 mice): significantly decreased | proliferation of oligopotent progenitors (Ki67, BrdU) ([6]; Lin−Kit+Sca1−, 150 mg/kg daily oral gavage, 48 hours): modest inhibition of proliferation | proliferation of multipotent progenitor cell compartment (Ki67, BrdU) ([6]; MPP (Lin−Kit+Sca1+CD48−CD150−), 150 mg/kg daily oral gavage, 48 hours): more pronounced inhibition of proliferation | proliferation of Lin−Kit−Sca1− and Lin+ cells ([6]; more fully differentiated cells, 150 mg/kg daily oral gavage, 48 hours): no change in proliferation | protection of blood cell counts (platelets, hemoglobin, lymphocytes, granulocytes) from doxorubicin [7]: provides quadrilineage protection | protection of blood cell counts (platelets, hemoglobin, lymphocytes, granulocytes) from doxorubicin ([7]; listed as PD332991): protected | protection of blood cell counts (platelets, hemoglobin, lymphocytes, granulocytes) from carboplatin [7]: provides quadrilineage protection | protection of blood cell counts (platelets, hemoglobin, lymphocytes, granulocytes) from carboplatin ([7]; listed as PD332991): protected | erythroid, platelet and myeloid (monocyte+granulocyte) lineages upon administration [8]: decrease | erythroid, platelet and myeloid (monocyte+granulocyte) lineages upon administration [9]: decrease | protection from chemotherapy-induced cytotoxicity (cell proliferation assays) [10]: significant protection | protection from chemotherapy-induced cytotoxicity (cell proliferation assays) [11]: significant protection | protection from chemotherapy-induced cytotoxicity (cell proliferation assays) [12]: not

From patent US20150111896A1, “HEMATOPOIETIC PROTECTION AGAINST CHEMOTHERAPEUTIC COMPOUNDS USING SELECTIVE CYCLIN-DEPENDENT KINASE 4/6 INHIBITORS” (The University of North Carolina at Chapel Hill, priority 2008, published 2015)
